Patent publication US20100215635A1, “SMALL MOLECULES TO INDUCE WEIGHT LOSS OR TO REDUCE WEIGHT GAIN” (priority 2009, published 2010)

Columns and labels:
Format in all cases: in vivo, mouse
C57/BL mice = test: Effect on body weight of C57/BL (non-obese control) mice; settings: for Body weight gained: 4.5 mg/kg s.c. daily for 14 days; for Body weight: 4.5 mg/kg s.c. once daily for 14 days
Procedure: C57BL6 male mice (10-11 weeks old) were used as non-obese controls of ob/ob mice. These animals were kept under specified pathogen free (SPF) condition and they were fed a standard sterilized diet (Charles River) ad libitum. Experimental groups selected from C57/BL or ob/ob mice were injected subcutaneously at regular intervals once daily for 14 days with CCompound1, CCompound3, or CCompound19 at the dose of 4.5-mg per kg. Other groups selected from C57/BL or ob/ob mice remained untreated during the entire length of the experiment. Body weight was measured every day or every second day for 14 days and then on days 21, 40, and 48. All untreated and treated groups included 5 animals except the CCompound1-treated group of ob/ob mice that included 9 animals. The data are expressed as the average ±standard error of mean. This mouse strain served as the control to the ob/ob mice. On day 1, body weight was measured first followed by the treatment in the CCompound1-treated group. The treatments were repeated for 14 days. […] CCompound1 treated mice also gained 2-g body weight between day 1 and 14, and 4.2-g between day 14 and 48. This small difference between the two groups was not statistically significant. In a follow up experiment using the same treatment regimen, C57/BL mice treated with 6-mg per kg dose of CCompound1 gained 5.6-g weight gain over a 40 days period compared to 5.8-g weight gain in the control group over the same time period. Again, this small difference was not statistically significant.

ob/ob mice [1] = test: Effect on body weight of ob/ob obese mice; settings: for Body weight gained: 4.5 mg/kg s.c. daily for 14 days; for Body weight: 4.5 mg/kg s.c. once daily for 14 days
Text: Leptin-deficient ob/ob obese diabetic inbred, adult female mice, weighing 32-36 g at arrival, specified pathogen free (SPF) hygienic category from Charles River VRF1, were used for these experiments. The ob/ob obese mouse is an extensively used animal model for the study of non-insulin-dependent-diabetes mellitus (NIDDM). The mutation was propagated in the C57BL/6J (BL/6) inbred strain. Homozygous obese (ob/ob) animals developed hyperglycemia, hyperinsulinemia and obesity. In these animals gluconeogenesis is enhanced despite their hyperinsulinemic state. The animals were kept in macrolon cages at 22-24° C. and 50-60% humidity, with lighting regimen of 12/12 h light dark. The animals had free access tap water and were fed with a sterilized standard diet (Charles River VRF1, autoclavable). The animals were cared for according to the “Guiding Principles for the Care and Use for Animals” based upon the Helsinki declaration. The ob/ob mice gained weight rapidly and develop a marked obesity by 5-6 weeks of age. […] When arrived they were 5 weeks old (when experiment was performed with CC1) or 4.5 weeks old (when experiment was performed with CC3 and CC19); the treatments started 8 days later in the experiment performed with CC1 and 10 days later in the experiment performed with CC3 and CC19. Experimental groups selected from C57/BL or ob/ob mice were injected subcutaneously at regular intervals once daily for 14 days with CCompound1, CCompound3, or CCompound19 at the dose of 4.5-mg per kg. Other groups selected from C57/BL or ob/ob mice remained untreated during the entire length of the experiment. Body weight was measured every day or every second day for 14 days and then on days 21, 40, and 48. All untreated and treated groups included 5 animals except the CCompound1-treated group of ob/ob mice that included 9 animals. The data are expressed as the average ±standard error of mean. On day 1, body weight was measured first followed by the treatment in the CCompound1-treated group. The treatments were repeated for 14 days with no additional treatment performed during the rest of the observation period. […] In contrast, CCompound1 treated mice gained 2.6-g body weight between day 1 and 14, and also only 2.6-g between day 14 and 48. On day 14 and the following days the differences in body weight were statistically highly significant (P<0.001). It is particularly important that between day 14 and 48, weight gain in the treated group was minimal compared to the control group despite discontinuation of the treatment. […] This feature allows intermittent use of CCompound1 and analogs for weight control. On day 1, first body weight was measured, followed by the treatments with CCompound3 (5 mice) or CCompound19 (5 mice) as indicated in TABLE 4. The treatments were repeated for 14 days with no additional treatment performed during the rest of the observation period. One group of animals (5 mice) served as untreated controls. […] Mice treated with CCompound3 gained 3.3-g body weight between day 1 and 15, and 6.8-g between day 15 and 48. Mice treated with CCompound19 gained 2.6-g body weight between day 1 and 15, and 4.2-g between day 15 and 48. […] Again, both CCompound3 and particularly CCompound19 were effective reducing weight between day 15 and 48 despite discontinuation of the treatment after the last treatment on day 15.

ob/ob mice [2] = test: Effect on body weight of ob/ob obese mice; settings: ob/ob mice (Example 3, Table 4), 4.5 mg/kg s.c. once daily for 14 days; day 20
[3] = ob/ob mice (Example 3), then no treatment, between day 15 and 48 (untreated 11.9 g)
[4] = ob/ob mice (Example 3), between day 1 and 15 (untreated 4.8 g)
[5] = ob/ob mice (Example 3, Table 4), day 1 (before first treatment)
[6] = ob/ob mice (Example 3, Table 4), day 5
[7] = ob/ob mice (Example 3, Table 4), day 10
[8] = ob/ob mice (Example 3, Table 4), day 15
[9] = ob/ob mice (Example 3, Table 4), day 40, P < 0.001 vs no treatment
[10] = ob/ob mice (Example 3, Table 4), day 48, P < 0.001 vs no treatment

In the case of `Cc1c(OCC(O)C[N+](C)(C)C)cc2c(=O)c3ccccc3sc2c1C.[Cl-]` (centres unmarked) [CCcompound1, [3-(3,4-Dimethyl-9-oxo-9H-thioxanthen-2-yloxy)-2-hydroxypropyl]trimethyl-ammonium chloride], the Body weight gained (C57/BL mice; between day 1 and 14 (untreated 2 g)) is reported as 2 g, the Body weight gained (C57/BL mice; between day 14 and 48 (untreated 5.2 g; difference not statistically significant)) is reported as 4.2 g and the Body weight (C57/BL mice; day 1 (before first treatment)) is reported as 28.0 ± 0.7 g. It also gave a Body weight (C57/BL mice; day 2) of 27.7 ± 0.6 g, a Body weight (C57/BL mice; day 4) of 28.2 ± 0.7 g and a Body weight (C57/BL mice; day 6) of 28.7 ± 0.5 g. For the same molecule, the Body weight (C57/BL mice; day 8) was 28.8 ± 0.4 g, the Body weight (C57/BL mice; day 10) was 29.6 ± 0.7 g and the Body weight (C57/BL mice; day 12) was 30.3 ± 1.4 g. The Body weight (C57/BL mice; day 14) was 30.0 ± 0.9 g, the Body weight (C57/BL mice; day 21) was 30.7 ± 1.1 g and the Body weight (C57/BL mice; day 40) was 33.9 ± 0.9 g. For the same molecule, the Body weight (C57/BL mice; day 48) was 34.2 ± 0.8 g, the “Effect on body weight in normal mice” value (C57/BL mice; dose range 4.5-6 mg per kg) was “no effects on the body weight” and the Weight gain (C57/BL mice; follow up experiment, 6 mg per kg, same regimen, over a 40 days period (control 5.8 g; not statistically significant)) was 5.6 g. It also gave a Body weight gained (ob/ob mice [1]; ob/ob mice, then no treatment, between day 14 and 48 (untreated 11.6 g)) of 2.6 g, a Body weight gained (ob/ob mice [1]; ob/ob mice, between day 1 and 14 (untreated 4.4 g)) of 2.6 g and a Body weight (ob/ob mice [1]; ob/ob mice, day 1 (before first treatment)) of 40.4 ± 0.7 g. For the same molecule, the Body weight (ob/ob mice [1]; ob/ob mice, day 2) was 40.4 ± 0.6 g, the Body weight (ob/ob mice [1]; ob/ob mice, day 3) was 40.6 ± 0.6 g and the Body weight (ob/ob mice [1]; ob/ob mice, day 4) was 40.8 ± 0.6 g. The Body weight (ob/ob mice [1]; ob/ob mice, day 5) was 40.7 ± 0.6 g, the Body weight (ob/ob mice [1]; ob/ob mice, day 6) was 41.0 ± 0.6 g and the Body weight (ob/ob mice [1]; ob/ob mice, day 7) was 41.5 ± 0.6 g. The Body weight (ob/ob mice [1]; ob/ob mice, day 8) was 41.9 ± 0.7 g, the Body weight (ob/ob mice [1]; ob/ob mice, day 9) was 42.1 ± 0.7 g and the Body weight (ob/ob mice [1]; ob/ob mice, day 10) was 42.4 ± 0.7 g. The Body weight (ob/ob mice [1]; ob/ob mice, day 11) was 42.6 ± 0.6 g, the Body weight (ob/ob mice [1]; ob/ob mice, day 12) was 42.7 ± 0.6 g and the Body weight (ob/ob mice [1]; ob/ob mice, day 13) was 42.9 ± 0.6 g. For the same molecule, the Body weight (ob/ob mice [1]; ob/ob mice, day 14, P < 0.001 vs no treatment) was 43.0 ± 0.7 g, the Body weight (ob/ob mice [1]; ob/ob mice, day 19, P < 0.001 vs no treatment) was 44.3 ± 0.9 g and the Body weight (ob/ob mice [1]; ob/ob mice, day 21, P < 0.001 vs no treatment) was 44.5 ± 0.8 g. For the same molecule, the Body weight (ob/ob mice [1]; ob/ob mice, day 45, P < 0.001 vs no treatment) was 45.6 ± 1.1 g and the Body weight (ob/ob mice [1]; ob/ob mice, day 48, P < 0.001 vs no treatment) was 45.6 ± 1.1 g.

`CC[N+](C)(CC)CCOCc1ccc2sc3ccccc3c(=O)c2c1` [CCcompound3] was tested, and the Body weight gained (ob/ob mice [1]; [3]) was 6.8 g, the Body weight gained (ob/ob mice [1]; [4]) was 3.3 g and the Body weight (ob/ob mice [1]; [5]) was 37.0 ± 0.6 g. It also gave a Body weight (ob/ob mice [1]; [6]) of 37.5 ± 1.2 g, a Body weight (ob/ob mice [1]; [7]) of 38.5 ± 0.9 g and a Body weight (ob/ob mice [1]; [8]) of 40.3 ± 1.1 g. For the same molecule, the Body weight (ob/ob mice [1]; [9]) was 45.9 ± 0.8 g, the Body weight (ob/ob mice [1]; [10]) was 47.1 ± 1.0 g and the Body weight (ob/ob mice [2]) was 42.2 ± 0.5 g.

With `C[N+](C)(C)CCC=C1c2ccccc2Sc2ccccc21.[I-]` [CCcompound19, N,N,N-trimethyl-3-(9H-thioxanthen-9-ylidene)-propane-1-aminium iodide] the Body weight gained (ob/ob mice [1]; [3]) was 4.2 g, the Body weight gained (ob/ob mice [1]; [4]) was 2.6 g and the Body weight (ob/ob mice [1]; [5]) was 38.1 ± 0.6 g. For the same molecule, the Body weight (ob/ob mice [1]; [6]) was 38.4 ± 0.7 g, the Body weight (ob/ob mice [1]; [7]) was 39.7 ± 0.4 g and the Body weight (ob/ob mice [1]; [8]) was 40.7 ± 0.5 g. It also gave a Body weight (ob/ob mice [1]; [9]) of 43.8 ± 1.3 g, a Body weight (ob/ob mice [1]; [10]) of 44.9 ± 0.8 g and a Body weight (ob/ob mice [2]) of 42.1 ± 0.9 g.
